Results taken from patent publication US9598716B2, “Destructible surfactants and uses thereof” (Waters Technologies Corporation, priority 2002, dated 2017).

Tests used:
trypsin = test: Trypsin activity assay (rate of hydrolysis of BAEE to BA, UV); format: biochemical; conditions: for Trypsin activity (%): 0.5 μg of trypsin in 50 mM ammonium bicarbonate, pH 7.9, no additive = 100
Protocol: Trypsin activity measurements were carried out by introducing 1 μg/ml of trypsin to 0.25 mM N-α-benzoyl-L-arginine ethyl ester (BAEE, pH 7.9) at room temperature. Changes in trypsin activity were plotted by measuring the rate of hydrolysis of BAEE to a UV active product, BA, at A 252 nm.

[1] = biological target: T1, horse skeletal muscle myoglobin (Equus caballus, UniProt P68082); test: Mass spectrometric detection of myoglobin treated with ALS or SDS (electrospray); conditions: 5 μM myoglobin with 0.1% surfactant; ALS degraded in 10% acetic acid for 16 hours
T1 construct: horse skeletal muscle myoglobin (Sigma. P/N M0630); purchased Sigma M0630; host or cells: horse skeletal muscle
Protocol: Mass spectrometric detection was performed on myoglobin using a Platform LC (Micromass, Manchester, UK) with constant infusion. A stock solution of 50 μM horse skeletal muscle myoglobin (Sigma. P/N M0630) was prepared in 50/50 20 mM ammonium acetate, pH 5.1/acetonitrile (v/v). A stock solution of 1% SDS and 1% ALS were also prepared in both 50/50 ammonium acetate/acetonitrile, and 40/40/10 ammonium acetate/acetonitrile/glacial acetic acid. The surfactant stock solutions were both prepared fresh, and allowed to sit for at least 16 hours. To 100 μL of each of the surfactant stock solutions was added 100 μL of myoglobin stock and 800 μL 50/50 ammonium acetate/acetonitrile. Each solution was then drawn into a 1 mL syringe and placed in a syringe pump (Harvard Instruments). The solution was infused into the mass spectrometer at a flow rate of 20 μL/min. Mass spectrometer settings were as follows:
Gas flow rate: 340 L/h; Source temperature: 100° C., Capillary voltage: 3.46 kV; Cone voltage: 25 V; Ion energy: 0.6; Scan rate: 3.0 sec/scan; Scan range: 250-1600 amu.

[2] = pH 7
Description: After the chemical reaction proceeds, the surfactant of the present invention involved in enhancing the chemical reaction can be degraded, e.g., by contact with an acidic solution.

Lys-C = biological target: T2, Lys-C (Lysobacter enzymogenes, UniProt Q7M135); test: Comparative digestion of myoglobin with Lys-C; format: biochemical; conditions: with ALS, no observable digestion without ALS
T2 construct: purchased Roche Diagnostics
Protocol: (§1) Proteins (2-20 μM), indicated in Table 2, were solubilized in 50 mM NH4HCO3 or 0.1-0.25% (w/w) ALS before tryptic digestion. The trypsin to protein ratio used was 1-2%. The protein (˜17 μM) was solubilized with 8M urea or 0.25% ALS. After tryptic digestion, ALS was destroyed rapidly by addition of strong acid such as HCl or TFA. The by-products were removed by centrifugation prior to MS analysis. Protein digests were mass analyzed either by a MALDI.TOF mass spectrometer (M@LDI™ LR, Micromass UK Ltd) or separated by RP-HPLC (CapLC®, Waters Corporation) then interfaced to an orthogonal acceleration TOF mass spectrometer (LCT™, Micromass UK Ltd) via an electrospray ionization source.
(§2) Myoglobin comparative digestion was performed as in Example 3 (in the presence and absence of ALS), with the exchange of the following proteases for trypsin: • A. Asp-N (FIG. 4A) • B. Lys-C (FIG. 4B) • C. Glu-C (FIG. 4C) Digestions were performed for about 50 minutes. The enzymes were purchased from Roche Diagnostics. Analysis is shown in FIGS. 4A-4C, as indicated above. In each case, when no ALS was in the digestion solution, no observable digestion took place. However, with ALS, within about 50 minutes, the entire protein was consumed.

Glu-C = biological target: T3, Glu-C (Staphylococcus aureus, UniProt P0C1U8); test: Comparative digestion of myoglobin with Glu-C; format: biochemical; conditions: with ALS, no observable digestion without ALS
T3 construct: purchased Roche Diagnostics
Protocol: as §1, §2

T1 sequence (P68082 whole entry): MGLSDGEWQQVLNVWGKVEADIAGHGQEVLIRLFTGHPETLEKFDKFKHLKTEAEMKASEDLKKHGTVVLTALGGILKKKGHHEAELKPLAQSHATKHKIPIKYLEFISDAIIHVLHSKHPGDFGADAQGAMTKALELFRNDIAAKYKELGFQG
T2 sequence (Q7M135 whole entry): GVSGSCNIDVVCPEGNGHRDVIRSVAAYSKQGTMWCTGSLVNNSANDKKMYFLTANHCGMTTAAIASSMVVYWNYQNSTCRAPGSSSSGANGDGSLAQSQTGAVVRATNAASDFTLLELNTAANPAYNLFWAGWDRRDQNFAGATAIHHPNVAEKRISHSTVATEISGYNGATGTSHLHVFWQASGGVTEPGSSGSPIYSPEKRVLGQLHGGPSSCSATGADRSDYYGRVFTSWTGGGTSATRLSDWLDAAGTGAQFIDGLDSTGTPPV
T3 sequence (P0C1U8 69-336): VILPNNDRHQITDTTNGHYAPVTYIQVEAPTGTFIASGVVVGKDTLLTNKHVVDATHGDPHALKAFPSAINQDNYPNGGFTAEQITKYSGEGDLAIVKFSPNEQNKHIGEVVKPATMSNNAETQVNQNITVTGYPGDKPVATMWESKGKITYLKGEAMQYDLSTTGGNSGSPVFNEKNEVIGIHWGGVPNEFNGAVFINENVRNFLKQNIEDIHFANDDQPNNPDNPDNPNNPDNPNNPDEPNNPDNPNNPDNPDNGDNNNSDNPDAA

Row | Compound | Trypsin activity (%) (trypsin; additive at 50%) | Myoglobin signal in electrospray mass spectrum [1] | Trypsin activity (%) (trypsin; additive at 0.1%) | Trypsin activity (%) (trypsin; additive at 0.5%) | further results
1 | CC#N [Acetonitrile] | 92% |  |  |  | 
2 | CO [Methanol] | 31% |  |  |  | 
3 | CCCCCCCCCCCCOS(=O)(=O)[O-].[Na+] [SDS, sodium dodecylsulfate] |  | no signals due to myoglobin are observed | 20% | 1% | Effect on trypsin activity (in words) (trypsin; each of the percentages examined): inhibits trypsin activity
4 | NC(N)=O [Urea] |  |  |  |  | Trypsin activity (%) (trypsin; additive at 2M): 85%; Trypsin activity (%) (trypsin; additive at 4M): 71%
5 | sodium 4-[(2-methyl-2 undecyl-1,3-dioxolan-4-yl)methyl]-1-propanesulfonate [ALS] |  | strong myoglobin signal | 99% | 87% | Stability of the surfactant [2]: stable; Time until the entire protein (myoglobin) was consumed (Lys-C): ≤ 50 min; Effect on trypsin activity (in words) (trypsin; ALS added to the trypsin solution containing SDS): increase in trypsin activity; Time until the entire protein (myoglobin) was consumed (Glu-C): ≤ 50 min
